According to patent publication US12122811B2, “BDNF mimetic peptide amphiphiles” (Northwestern University, priority 2018, dated 2024):
Positions of bridges follow the written chain, without caps; N, C: chain ends. Non-standard residues stand in square brackets, D forms with d. Residues, ends and D or L forms follow the SMILES beside them. Chains are numbered I, II in the order given. *: point of attachment. PEG6 = NCCOCCOCCOCCOCCOCCOCCC(=O)O; Palmitoyl = CCCCCCCCCCCCCCCC(=O)*

B1: BDNF protein: Human/Murine/Rat BDNF protein (Peprotech) (protein, UniProt P23560 19-247, looked up)
Neurotrophic factor BDNF …: APMKEANIRGQGGLAYPGVRTHGTLESVNGPKAGSRGLTSLADTFEHVIEELLDEDQKVRPNEENNKDADLYTSRVMLSSQVPLEPPLLFLLEEYKNYLDAANMSMRVRRHSDPARRGELSVCDSISEWVTAADKKTAVDMSGGTVTVLEKVPVSKGQLKQYFYETKCNPMGYTKEGCRGIDKRHWNSQCRTTQSYVRALTMDSKKRIGWRFIRIDTSCVCTLTIKRGR

Assays:
[1] = system: MAPK pathway (pErk 1/2); test: MAPK pathway activation, western blot of phosphorylated Erk (pErk 1/2); assay type: cell-based, mouse; conditions: 6 h of treatment, vs control conditions
Protocol: (§1) For western blot, cells were cultured in 6 well plates at a density of approximately 900,000 cells/well for 14 DIV before being treated. Treatments were added for 2, 4, 6, 8, 12 or 24 h in vitro before protein was harvested. For TrkB inhibitor studies, cells were cultured for 14 DIV and then treated with a TrkB specific inhibitor, K-252a (Sigma Aldrich), for 1 hour prior to being treated with the different conditions mentioned above. Protein was extracted after six hours of treatment.
(§2) Western Blot. Protein was extracted from primary neuronal cultures with Halt Protease and Phosphatase Inhibitor Cocktail (Thermo Scientific) and a BCA assay (Thermo Scientific) was performed to determine protein content of each sample. Cell protein was loaded into and separated using a 4-20% SDS-PAGE gel (Bio-Rad). It was then electrotransferred from the gel to a nitrocellulose membrane (Bio-Rad). The membranes were blocked with 5% milk solution (Bio-Rad) for 30 minutes followed by an overnight incubation with primary antibodies at 4° C. […] Protein signals were detected using Radiance Bioluminescent ECL substrate (Azure Biosystems). Densitometry analysis, standardized to total receptor content or Actin as a control for protein loading, was performed using ImageJ software.^3 For quantification, triplicate samples were analyzed and at least two different experiments were conducted.

[2] = system: PI3K pathway (pAKT); test: PI3K pathway activation, western blot of phosphorylated AKT (pAKT); assay type: cell-based, mouse; conditions: 6 h of treatment, vs control conditions
Protocol: as §1, §2

[3] = system: primary mouse cortical neurons; test: Morphometric analysis of neurites (MAP2, SMI312 immunocytochemistry); assay type: cell-based; conditions: 24 h
Protocol: For morphometric analysis and cell viability assays, cells were cultured in 24 or 48 well plates at a density of 25,000 or 40,000 cells/well respectively, for three days before being treated. Cells were then treated for 24 hours, 3 days or 7 DIV. Samples were fixed in 4% PFA for 15 min (20 min for gels) at room temperature (RT) for immunofluorescence studies.
Immunofluorescence. For immunofluorescence, fixed samples (4% PFA for 15 min at RT) were incubated with primary antibodies overnight and Alexa 488 or Alexa 555 secondary antibodies (1:2000, Invitrogen) were used for 2 h at room temperature. The following primary antibodies were used: mouse anti-Tuj-1 (neuronal marker 1:4000, BioLegend), rabbit anti-Tuj-1 (neuronal marker, 1:4000, BioLegend) rabbit anti-MAP2 (marker for mature neurons 1:2000, BioLegend), mouse anti-SMI312 (axonal filament marker 1:1000, BioLegend), rabbit anti-Synaptophysin (marker for synaptic vesicles, 1:1000, Abcam) and DAPI (nuclear stain, 1:2000, Invitrogen). If not already in a glass bottom plate (MatTek), the preparations were mounted with Immu-Mount (Thermo Scientific) for imaging.
Imaging and Morphometric Analysis. Throughout the experiments, a digital camera (Nikon) mounted on a tissue culture microscope was used to take bright field images of cells. Nikon A1R confocal laser-scanning microscope with GaAsP detectors was used to visualize and image fluorescent preparations. Images were processed using an ImageJ (National Institutes of Health) plugin. Confocal images were reconstructed by NIS Elements Advanced Research Microscope Imaging software (version 4.20) or Imaris program (version 8.1, Bitplane Scientific software) for 3D interactive data viewing with normal or shadow projections of cells screened under Nikon A1R confocal laser-scanning microscope with GaAsP detectors.
For morphometric analysis, NeuronJ was used to trace and measure neuronal extensions.^4 For quantification of number of primary neurites and neurite length, a minimum of 60 randomly selected cells were analyzed with a minimum of 2 independent batches of culture for each condition. The images were arranged in Adobe Photoshop (v.7.0), with adjustments for contrast, brightness and color balance to obtain optimal visual reproduction of data.

[4] = system: neuronal cells; test: Neuronal maturation markers (MAP2, PSD95) by immunocytochemistry and western blot; assay type: cell-based, mouse; conditions: neuronal cells (14 DIV) cultured during 16 DIV with treatment
Protocol: as §2, with “conducted. […]” for “conducted.”

[5] = system: cortical neurons; test: Whole-cell current-clamp (patch clamp) recordings of neurons on PA gels; assay type: cell-based, mouse; conditions: neurons on gels up to one week; relative to E2 Filler PA
Protocol: Patch Clamp. Whole-cell current-clamp recordings were made from visually identified primary cultured neurons using inverted Olympus IX51 microscope equipped with a 40× objective. Recording pipettes were made of glass capillaries using a horizontal Sutter P-1000 puller yielding a 3-5 MΩ resistance pipette when filled with standard intracellular solution containing (in mM): 120 K-MeSO4, 10 KCl, 10 HEPES, 10 Na2-phosphocreatine, 4 Mg-ATP, 0.4 Na3-GTP, pH 7.3; 285-290 mOsm. Gels with neurons were continuously perfused with standard oxygenated aCSF bath solution (in mM): 125 NaCl, 26 NaHCO3, 2.5 KCl, 1.25 NaH2PO4, 1 MgSO4, 25 glucose, 2 CaCl2, pH 7.4 at 32-34° C. Whole-cell current-clamp data was acquired using an […] amplifier (Molecular Devices, USA) and digitized at 10 kHz (filtered at 3 kHz) with the neurons held at −65 mV. Resting membrane potential was measured immediately after breaking into the cell. Input resistance was calculated as the slope of the voltage-current curve using 500 ms current steps from −50 pA to 30 pA at 10 pA steps. There were no differences in resting membrane potentials or input resistance between the three groups. […] AP threshold was calculated where the first derivative of the up phase of the trace equals 5 mV/ms. […] Data was analyzed using MATLAB protocols designed specifically for these experiments.

Molecule | activation of the MAPK pathway (pErk 1/2) [1] | activation of the PI3K pathway (pAKT) [2] | neurite number, BDNF PA versus native BDNF protein [3] | number of primary neurites ([3]; vs control conditions) | number of secondary neurites ([3]; vs control conditions) | total dendrite and axon length ([3]; vs native BDNF protein and control conditions) | MAP2 expression (neuronal maturation marker) [4] | number of action potentials [5]
CCCCCCCCCCCCCCCC(=O)N[C@H](C(=O)N[C@H](C(=O)N[C@@H](C)C(=O)N[C@@H](C)C(=O)N[C@@H](CCC(=O)O)C(=O)N[C@@H](CCC(=O)O)C(=O)N[C@@H](CCC(=O)O)C(=O)N[C@@H](CCC(=O)O)C(=O)NCCOCCOCCOCCOCCOCCOCCC(=O)NCCCC[C@@H]1NC(=O)[C@H]2CCCN2C(=O)[C@H](CCCNC(=N)N)NC(=O)[C@H](CCCCN)NC(=O)[C@H](CCCCN)NC1=O)C(C)C)C(C)C [BDNF PA, RKK(aK)(dP)-(PEG6 Spacer)-EEEEAAVV-C16 (SEQ ID NO: 5)] (I: Palmitoyl-VVAAEEEE[PEG6] / II: cyclo(KKKR[dP]); amide I:C-II:1) | marked increase in activation | marked increase in activation | no statistical differences | positive tendency | significant increase | significant increase | significant increase | higher number of action potentials
B1 | marked increase in activation | marked increase in activation |  |  |  |  | significant increase | 
